Measurements from patent US20130178453A1, “Cannabinoid Agonists” (priority 2010, published 2013).
Like-named read-outs stand apart in the source and are kept apart here.

Assays:
hCB1 = hCB1 (Homo sapiens, UniProt P21554); test: hCB1 radioligand binding assay ([3H]-CP 55,940 displacement); settings: HEK membranes
Source text: (§1) cDNA expression clones for human CB 1 (hCB1, Genbank Accession No. AY225225) and human CB2 (hCB2, Genbank Accession No. AY242132) expressed in vector pcDNA3.1+ were purchased from UMR cDNA Resource Center, Rolla, Mo. (Clone ID CNR01L000 for hCB1; CNR0200000 for hCB2).
Stable, HEK-293-derived cell lines that recombinantly express hCB1 or hCB2 were established. In brief, the clone hCB1 (CNR1L) or hCB2 (CNR2) was transfected into human embryonic kidney cells (HEK-293) using Lipofectamine 2000 (Gibco, Cat#11668-019) according to the manufacturer's protocol. Transfected clones were isolated by single colony purification and clones were screened for receptor expression using a whole cell, ^3H—CP 55,940 radioligand binding assay. HEK-293 stable cells were maintained in Dulbecco's modified Eagles medium (DMEM) containing 10% fetal bovine serum, 2 mM L-glutamine and 0.5 mg/mL G-418.
(§2) Membranes were isolated from transfected cells as follows. Monolayers of cultured cells were washed twice with phosphate-buffered saline (PBS). Cells were scraped into 20 mM HEPES, pH 7.4, 10 mM EDTA containing complete cocktail protease inhibitors (Roche, Catalog #11 697 498 001), and were homogenized by an electric-powered mechanical probe homogenizer (Omni GLH; probe G7-195S) for 40 seconds at 7000 rpm. Homogenates were centrifuged 10 minutes at 1000×g at 4° C. The supernatant was collected and was centrifuged for 1 hour at 40,000×g. The supernatant was then decanted and the resulting pellet was re-suspended in 20 mM HEPES, pH 7.4, 5 mM MgCl2, 1 mM EDTA, 10% sucrose with complete cocktail protease inhibitors. Protein concentration of membrane suspensions were measured by Bradford Protein Assay using bovine serum albumin as the standard (BioRad catalog #500-0006). Protein concentrations of membrane suspensions were adjusted with the final buffer in the range of 5 to 10 mg/mL and were stored at −80° C. until further use.
Radioligand binding assays were performed by incubating membranes (2-10 μg protein) prepared from HEK-293 cells expressing recombinant human cannabinoid receptors, CB 1 or CB2, at room temperature with 0.5 nM cannabinoid receptor agonist, [^3H]-CP 55,940 (Perkin Elmer, catalog #NET 1051) in 0.2 mL of binding buffer (50 mM Tris-HCl, pH 7.5, 5 mM MgCl2, 2.5 mM EDTA) and 0.1% fatty acid free bovine serum albumin (Sigma Cat. #A0821) for 90 minutes. A rapid filtration technique using Millipore FB filter plates (Catalog #MADVNOB) and filtration apparatus (Millipore system Catalog MAVM0960R) with vacuum aspiration was used to harvest and rinse labeled membranes (8 times with 0.2 mL of chilled binding buffer). The radioactivity bound to the filters was counted with 0.05 mL of liquid scintillant (UltraGold MV, PerkinElmer catalog #6013159) in a scintillation counter (Perkin Elmer Microbeta instrument). Nonspecific binding was determined in the presence of unlabeled 1 μM CP 55,940 (Sigma Aldrich, catalog #C1112). Binding data were analyzed using GraphPad Prism (GraphPad Software, Inc. San Diego, Calif.).

hCB2 [1] = target: T1, hCB2 (Homo sapiens, UniProt P34972); test: hCB2 GTPγS agonist assay (HEK-293 membranes); assay type: biochemical
T1 sequence (P34972 whole entry): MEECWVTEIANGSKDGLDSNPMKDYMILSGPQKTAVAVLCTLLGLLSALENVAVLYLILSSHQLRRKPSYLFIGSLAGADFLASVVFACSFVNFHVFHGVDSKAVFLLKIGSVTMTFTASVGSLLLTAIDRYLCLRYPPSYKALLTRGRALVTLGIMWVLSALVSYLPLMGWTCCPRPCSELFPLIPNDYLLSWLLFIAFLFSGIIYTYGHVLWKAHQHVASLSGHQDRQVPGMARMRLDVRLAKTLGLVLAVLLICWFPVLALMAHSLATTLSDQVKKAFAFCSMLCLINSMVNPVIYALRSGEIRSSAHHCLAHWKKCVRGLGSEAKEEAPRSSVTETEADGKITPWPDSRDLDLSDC
Procedure: as §1
as §2, with “Cells were scraped into 20 mM HEPES, pH 7.4, 10 mM EDTA containing complete cocktail protease inhibitors (Roche, Catalog #11 697 498 001), and were homogenized by an electric-powered mechanical probe homogenizer (Omni GLH; probe G7-195S) for 40 seconds at 7000 rpm.” left out
^35S GTPγS binding assays were performed by incubating recombinant cell membranes prepared above (5 μg) in the presence of scintillation proximity assay beads (SPA beads, Catalog #RPNQ0252 GE Healthcare, Buckinghamshire, England) in GTPγS binding buffer [50 mM HEPES (pH 7.4), 100 mM NaCl, 5 mM MgCl2, 0.001% saponin (Sigma catalog #S4521)] supplemented with 20 uM GDP (Sigma catalog #G7127) in the presence or absence of test compound. The reaction was carried out in 96-well microplates with 0.1 nM [^35S]GTPγS (specific activity=1250 Ci/mmol; Perkin Elmer catalog #NEG030X250UC) in a final volume of 100 μL. After a 90 min room temperature incubation, the reaction was analyzed using a scintillation counter (Perkin Elmer Microbeta instrument). Binding data were analyzed using GraphPad Prism.

hCB2 [2] = target: T1, hCB2; test: hCB2 radioligand binding assay ([3H]-CP 55,940 displacement); settings: HEK membranes
Procedure: as §1
as §2, with “Cells were scraped into 20 mM HEPES, pH 7.4, 10 mM EDTA containing complete cocktail protease inhibitors (Roche, Catalog #11 697 498 001), and were homogenized by an electric-powered mechanical probe homogenizer (Omni GLH; probe G7-195S) for 40 seconds at 7000 rpm.” left out
A rapid filtration technique using Millipore FB filter plates (Catalog #MADVNOB) and filtration apparatus (Millipore system Catalog MAVM0960R) with vacuum aspiration was used to harvest and rinse labeled membranes (8 times with 0.2 mL of chilled binding buffer). […] Binding data were analyzed using GraphPad Prism (GraphPad Software, Inc. San Diego, Calif.).

hCB2 [3] = target: T1, hCB2; test: hCB2 cAMP agonist assay (HEK-293 cells); assay type: cell-based
Procedure: as §1
cAMP assays were performed in HEK-293 cells stably expressing human CB 1 or CB2 receptors. […] Cells suspensions were centrifuged and the cells were washed once with PBS, were centrifuged again, and the cells were resuspended in HBSS (Hank's Balanced Salt Solution, Cellgro, Cat #21-022-CV) solution containing 10 mM HEPES and 0.1% fatty acid free BSA (Sigma, Cat #A0281). Cell suspensions were prepared at 1,500,000 cells per mL. Stock solutions of test substances (10 mM) in DMSO were diluted to 1 mM using 30% DMSO as diluent. Test substances of solutions (1 mM) were further diluted down to 3× of final assay concentrations in the above HBSS buffer containing 0.1% BSA in the presence of 90 uM forskolin (Sigma Cat#F6886). To perform the assay, 20 μL of cell suspension (1,500,000 cells/mL) were added to each well in 96 well plate and treated with 10 μL test substance solution diluted as described above. Cells and compounds were incubated at 37° C. for 30 minutes. Cells were lysed and cAMP concentration was measured using DiscoveRx-XS+ cAMP assay kit (DiscoveRx Corporation Ltd., Fremont, Calif., USA, Cat #90-0075-03), following the manufacturer's protocol. GraphPad Prism software was used to calculate EC50 values using sigmoidal dose response curve fitting. The maximal amount of cAMP produced by forskolin was defined as 100%.

[4] = GTPγS agonist, HEK membranes, read-out: hCB2 EC50 (GTPyS ag, nM, HEK)
[5] = cAMP agonist, HEK, 96-well, read-out: hCB2 EC50 (cAMP ag, nM, HEK (96-well))

hCB1, sequence (P21554 whole entry): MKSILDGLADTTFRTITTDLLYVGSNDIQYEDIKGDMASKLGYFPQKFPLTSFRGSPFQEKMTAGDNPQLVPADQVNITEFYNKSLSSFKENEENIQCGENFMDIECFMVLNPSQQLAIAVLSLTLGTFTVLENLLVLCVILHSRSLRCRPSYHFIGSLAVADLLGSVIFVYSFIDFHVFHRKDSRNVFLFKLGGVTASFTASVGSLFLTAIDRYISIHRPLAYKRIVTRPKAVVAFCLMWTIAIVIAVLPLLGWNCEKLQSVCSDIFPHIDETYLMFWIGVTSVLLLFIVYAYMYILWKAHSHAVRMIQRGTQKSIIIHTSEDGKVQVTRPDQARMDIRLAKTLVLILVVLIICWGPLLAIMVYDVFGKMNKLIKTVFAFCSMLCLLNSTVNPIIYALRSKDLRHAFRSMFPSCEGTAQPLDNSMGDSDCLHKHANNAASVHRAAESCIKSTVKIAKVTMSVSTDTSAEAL

Structure (SMILES)	IC50 (hCB1; hCB1 IC50 (CP displ, nM, HEK)) [nM]	EC50 (hCB2 [1]) [nM]	IC50 (hCB2 [2]; hCB2 IC50 (CP displ, nM, HEK)) [nM]	also measured
Cc1c(C(=O)c2cccc3ccccc23)c2sccc2n1CCN1CCOCC1 [Compound I-1]	100 to 1000	< 100	< 100	–
CCCn1c(C)c(C(=O)c2cccc3ccccc23)c2ccsc21 [Compound I-2]	1000 to 10000	100 to 1000	100 to 1000	–
Cc1[nH]c2sccc2c1C(=O)c1cccc2ccccc12 [Compound I-3]	> 10000	< 100	1000 to 10000	–
Cc1[nH]c2ccsc2c1C(=O)c1cccc2ccccc12 [Compound I-4]	> 10000	–	1000 to 10000	EC50 (hCB2 [1]; [4]): 1000 to 10000 nM
Cc1c(C(=O)c2cccc3ccccc23)c2ccsc2n1CCN1CCOCC1 [Compound I-5]	100 to 1000	< 100	< 100	–
CCCn1c(C)c(C(=O)c2c(C)n(CCC)c3sccc23)c2ccccc21 [Compound I-7]	1000 to 10000	–	100 to 1000	–
Cc1c(C(=O)c2cc3ccccc3[nH]2)c2ccsc2n1CCN1CCOCC1 [Compound I-10]	1000 to 10000	–	100 to 1000	–
CCCn1c(C)c(C(=O)c2cccc3ccccc23)c2sccc21 [Compound I-12]	1000 to 10000	< 100	100 to 1000	–
CCCn1c(C(=O)c2c(C)[nH]c3sccc23)cc2ccccc21 [Compound I-13]	–	–	–	IC50 (hCB1; read-out: hCB1 IC50 (CP displ, nM, HEK)): > 10000 nM; IC50 (hCB2 [2]; read-out: hCB2 IC50 (CP displ, nM, HEK)): > 10000 nM
CCn1c(C(=O)c2c(C)n(CCCCl)c3ccccc23)cc2ccsc21 [Compound I-18]	100 to 1000	< 100	< 100	EC50 (hCB2 [3]): < 100 nM
CCCn1c(C)c(C(=O)c2cc3sccc3s2)c2ccccc21 [Compound I-20]	1000 to 10000	100 to 1000	1000 to 10000	EC50 (hCB2 [3]): 100 to 1000 nM
C=Cn1c(C)c(C(=O)c2cc3ccsc3n2CC)c2ccccc21 [Compound I-24]	–	–	100 to 1000	hCB1 IC50 (CP displ, nM, HEK) (hCB1): B/C; EC50 (hCB2 [1]; [4]): 100 to 1000 nM; EC50 (hCB2 [3]; [5]): < 100 nM
CCn1c(C(=O)c2c(C)n(CCC(=O)O)c3ccccc23)cc2ccsc21 [Compound I-27, 3-(3-(6-ethyl-6H-thieno[2,3-b]pyrrole-5-carbonyl)-2-methyl-1H-indol-1-yl)propanoic acid]	> 10000	–	100 to 1000	EC50 (hCB2 [3]; [5]): 100 to 1000 nM
CCCn1c(C)c(C(=O)c2cc3ccsc3n2CCC)c2c1CCC(C)(C)C2 [Compound I-35]	100 to 1000	–	< 100	EC50 (hCB2 [1]; [4]): < 100 nM; EC50 (hCB2 [3]; [5]): < 100 nM
CCn1c(C(=O)c2c[nH]c3ccccc23)cc2ccsc21 [Compound I-37]	> 10000	–	100 to 1000	EC50 (hCB2 [1]; [4]): 100 to 1000 nM; EC50 (hCB2 [3]; [5]): < 100 nM
